# Patent US9555038B2, “Heterocycle-substituted tetracyclic compounds and methods of use thereof for the treatment of viral diseases” (Merck Sharp & Dohme Corp., priority 2013, dated 2017)
# Read-outs that look alike come from different tables or passages of the source.
# Legend:
# HCV replicon 1A = experiment: Cell-based HCV Replicon Assay A, replicon 1A
# Experimental: (§1) To measure cell-based anti-HCV activity of compounds of the present invention, two complimentary assays were employed using various replicons. In the first assay (“Replicon Assay A”), replicon cells were seeded at 2000 cells/well in 384-well 384-well flat bottom tissue culture treated clear bottom plate (Corning 3707) in the presence of the test compound. Various concentrations of test compound, typically in 10 serial dilutions, were added to the assay mixture, with the starting concentration ranging from 333.3 nM to […]. The final concentration of DMSO was 0.5%. Fetal bovine serum was 5%, in the assay media. Cells were harvested on day 3 by removing media and washing the cells with a suitable wash buffer. The cells are lysed with the addition of 1× Qiagen lysis buffer (Cat #1062731). The replicon RNA level was measured using real time PCR (TaqMan® EZ RT-PCR, Applied Biosystems 403028) with the following primers and probes: […]
# (§2) Cyclophilin RNA was used as endogenous control and was amplified in the same reaction as NS5B (multiplex PCR). The real-time RT-PCR reactions were run on ABI PRISM 7900HT Sequence Detection System using the following program: 50° C. for 2 minutes, 60° C. for 30 minutes, 95° C. for 5 minutes, 40 cycles of 94° C. for 20 sec, 55° C. for 1 minutes.
# (§3) The amount of HCV replicon RNA per cell is quantified using a linear regression curve for a known nanogram (ng) amount of HCV replicon total RNA. This is established by plotting the Cycle Threshold values (Ct) from the Neo probe and primer set versus the log (ng) for each HCV replicon total RNA standard. The amount of HCV RNA for each replicon sample is calculated by taking the sample's Ct value, minus the line intercept, divided by the slope of the line. Similarly, the amount of Cyclophilin mRNA per cell is also quantified using a linear regression curve for a known nanogram (ng) amount of HCV replicon total RNA. Again, this is established by plotting the Cycle Threshold values (Ct) from the Cyclophilin probe and primer set versus the log (ng) for each HCV replicon total RNA standard.
# (§4) Data was obtained for various compounds of the present invention using the methods described in the Example above, and is presented in the table immediately below. Data for replicons 1A, 1AY93H and 2B were obtained using Replicon Assay A and data for replicons 1AQ30D and 1B were obtained using Replicon Assay B.
# HCV replicon 2B = experiment: Cell-based HCV Replicon Assay A, replicon 2B
# Experimental: as §1, §2, §3, §4
# HCV replicon 1AY93H = experiment: Cell-based HCV Replicon Assay A, replicon 1AY93H; details: read-out: 1A Y93H IC50, replicon 1AY93H
# Experimental: as §1, §2, §3, §4
# [1] = Hepatitis C virus, read-out: 2B IC50 (nM), replicon 2B
compound,measurement,setting,value
COC(=O)N[C@H](C(=O)N1CCC[C@H]1c1ncc(-c2cc(F)c3c(c2)OC(c2cnc(-c4ncccn4)s2)n2c-3cc3cc(-c4cnc([C@@H]5CCCN5C(=O)[C@@H](NC(=O)OC)C(C)C)[nH]4)ccc32)[nH]1)C(C)C (mixture of isomers) [Compound 411],IC50,HCV replicon 1A; Hepatitis C virus,0.0512 nM
COC(=O)N[C@H](C(=O)N1CCC[C@H]1c1ncc(-c2cc(F)c3c(c2)OC(c2sc(C)nc2C(F)(F)F)n2c-3cc3cc(-c4cnc([C@@H]5CCCN5C(=O)[C@@H](NC(=O)OC)C(C)C)[nH]4)ccc32)[nH]1)C(C)C (mixture of isomers) [Compound 426],IC50,HCV replicon 1A; Hepatitis C virus,0.0022 nM
"COC(=O)N[C@H](C(=O)N1CCC[C@H]1c1ncc(-c2cc(F)c3c(c2)OC(c2cncs2)n2c-3cc3cc(-c4cnc([C@@H]5CCCN5C(=O)[C@@H](NC(=O)OC)C(C)C)[nH]4)ccc32)[nH]1)C(C)C (single isomer, unassigned) [Compound 1]",IC50,"HCV replicon 2B; read-out: 2B IC50, replicon 2B",0.88 nM
"COC(=O)N[C@H](C(=O)N1CCC[C@H]1c1ncc(-c2cc(F)c3c(c2)OC(c2cnns2)n2c-3cc3cc(-c4cnc([C@@H]5CCCN5C(=O)[C@@H](NC(=O)OC)C(C)C)[nH]4)ccc32)[nH]1)C(C)C (single isomer, unassigned) [Compound 4]",IC50,HCV replicon 1AY93H,1.39 nM
same,IC50,"HCV replicon 2B; read-out: 2B IC50, replicon 2B",0.98 nM
"COC(=O)N[C@H](C(=O)N1CCC[C@H]1c1ncc(-c2cc(F)c3c(c2)OC(c2nnc(C)s2)n2c-3cc3cc(-c4cnc([C@@H]5CCCN5C(=O)[C@@H](NC(=O)OC)C(C)C)[nH]4)ccc32)[nH]1)C(C)C (single isomer, unassigned) [Compound 5]",IC50,"HCV replicon 2B; read-out: 2B IC50, replicon 2B",3.06 nM
"COC(=O)N[C@H](C(=O)N1CCC[C@H]1c1ncc(-c2cc(F)c3c(c2)OC(c2nnc(C)s2)n2c-3cc3cc(-c4cnc([C@@H]5CCCN5C(=O)[C@@H](NC(=O)OC)C(C)C)[nH]4)ccc32)[nH]1)C(C)C (single isomer, unassigned) [Compound 6]",IC50,HCV replicon 2B; [1],1.75 nM
"COC(=O)N[C@H](C(=O)N1CCC[C@H]1c1ncc(-c2cc(F)c3c(c2)OC(c2nc(C4CC4)cs2)n2c-3cc3cc(-c4cnc([C@@H]5CCCN5C(=O)[C@@H](NC(=O)OC)C(C)C)[nH]4)ccc32)[nH]1)C(C)C (single isomer, unassigned) [Compound 11]",IC50,HCV replicon 1AY93H,14.4 nM
same,IC50,"HCV replicon 2B; read-out: 2B IC50, replicon 2B",6.06 nM
"COC(=O)N[C@H](C(=O)N1CCC[C@H]1c1ncc(-c2cc(F)c3c(c2)OC(c2nc(C4CC4)cs2)n2c-3cc3cc(-c4cnc([C@@H]5CCCN5C(=O)[C@@H](NC(=O)OC)C(C)C)[nH]4)ccc32)[nH]1)C(C)C (single isomer, unassigned) [Compound 12]",IC50,HCV replicon 1AY93H,0.18 nM
same,IC50,"HCV replicon 2B; read-out: 2B IC50, replicon 2B",2.21 nM
"COC(=O)N[C@H](C(=O)N1CCC[C@H]1c1ncc(-c2cc(F)c3c(c2)OC(c2cnc(C(F)F)s2)n2c-3cc3cc(-c4cnc([C@@H]5CCCN5C(=O)[C@@H](NC(=O)OC)C(C)C)[nH]4)ccc32)[nH]1)C(C)C (single isomer, unassigned) [Compound 19]",IC50,HCV replicon 1AY93H,1.24 nM
same,IC50,"HCV replicon 2B; read-out: 2B IC50, replicon 2B",0.933 nM
"COC(=O)N[C@H](C(=O)N1CCC[C@H]1c1ncc(-c2cc(F)c3c(c2)OC(c2cnc(C4CC4)s2)n2c-3c(F)c3cc(-c4cnc([C@@H]5CCCN5C(=O)[C@@H](NC(=O)OC)C(C)C)[nH]4)ccc32)[nH]1)C(C)C (single isomer, unassigned) [Compound 22]",IC50,HCV replicon 1AY93H,0.86 nM
same,IC50,"HCV replicon 2B; read-out: 2B IC50, replicon 2B",0.44 nM
"COC(=O)N[C@H](C(=O)N1CCC[C@H]1c1ncc(-c2cc(F)c3c(c2)OC(c2cnc(C(C)C)s2)n2c-3cc3cc(-c4cnc([C@@H]5CCCN5C(=O)[C@@H](NC(=O)OC)C(C)C)[nH]4)ccc32)[nH]1)C(C)C (single isomer, unassigned) [Compound 85]",IC50,HCV replicon 1A; Hepatitis C virus,0.0014 nM
same,IC50,"HCV replicon 2B; read-out: 2B IC50, replicon 2B",1.08 nM
"CCCc1ncc(C2Oc3cc(-c4cnc([C@@H]5CCCN5C(=O)[C@@H](NC(=O)OC)C(C)C)[nH]4)cc(C)c3-c3cc4cc(-c5cnc([C@@H]6CCCN6C(=O)C(NC(=O)OC)C6CCOC(C)(C)C6)[nH]5)ccc4n32)s1 (single isomer, unassigned) [Compound 226]",IC50,HCV replicon 2B; [1],0.005 nM
"COC(=O)NC(C(=O)N1[C@@H]2C[C@@H]2C[C@H]1c1ncc(-c2ccc3c(c2)cc2n3C(c3cnc(C4CC4)s3)Oc3cc(-c4cnc([C@@H]5CCCN5C(=O)[C@@H](NC(=O)OC)C(C)C)[nH]4)cc(C)c3-2)[nH]1)C1CCOC(C)(C)C1 (single isomer, unassigned) [Compound 227]",IC50,HCV replicon 2B; [1],0.016 nM
"COC(=O)NC(C(=O)N1[C@@H]2C[C@@H]2C[C@H]1c1ncc(-c2ccc3c(c2)cc2n3C(c3cnc(C4CC4)s3)Oc3cc(-c4cnc([C@@H]5CCCN5C(=O)[C@@H](NC(=O)OC)C(C)C)[nH]4)cc(F)c3-2)[nH]1)C1CCOC(C)(C)C1 (single isomer, unassigned) [Compound 314]",IC50,HCV replicon 1A,0.0026 nM
same,IC50,"HCV replicon 2B; read-out: 2B IC50, replicon 2B",0.002 nM
"COC(=O)NC(C(=O)N1[C@@H]2C[C@@H]2C[C@H]1c1ncc(-c2ccc3c(c2)cc2n3C(c3cnc(C(C)(C)C)s3)Oc3cc(-c4cnc([C@@H]5CCCN5C(=O)[C@@H](NC(=O)OC)C(C)C)[nH]4)cc(F)c3-2)[nH]1)C1CCOC(C)(C)C1 (single isomer, unassigned) [Compound 329]",IC50,"HCV replicon 2B; read-out: 2B IC50, replicon 2B",0.16 nM
"COC(=O)NC(C(=O)N1[C@@H]2C[C@@H]2C[C@H]1c1ncc(-c2ccc3c(c2)cc2n3C(c3cnc(C(C)(C)C)s3)Oc3cc(-c4cnc([C@@H]5CCCN5C(=O)[C@@H](NC(=O)OC)C(C)C)[nH]4)cc(F)c3-2)[nH]1)C1CCOC(C)(C)C1 (single isomer, unassigned) [Compound 330]",IC50,"HCV replicon 2B; read-out: 2B IC50, replicon 2B",0.016 nM
"COC(=O)N[C@H](C(=O)N1CCC[C@H]1c1ncc(-c2cc(F)c3c(c2)OC(c2nc4ccccc4s2)n2c-3cc3cc(-c4cnc([C@@H]5CCCN5C(=O)[C@@H](NC(=O)OC)C(C)C)[nH]4)ccc32)[nH]1)C(C)C (single isomer, unassigned) [Compound 400]",IC50,"HCV replicon 2B; read-out: 2B IC50, replicon 2B",> 1.67 nM
"COC(=O)N[C@H](C(=O)N1CCC[C@H]1c1ncc(-c2cc(F)c3c(c2)OC(c2cnc(-c4ccncc4)s2)n2c-3cc3cc(-c4cnc([C@@H]5CCCN5C(=O)[C@@H](NC(=O)OC)C(C)C)[nH]4)ccc32)[nH]1)C(C)C (single isomer, unassigned) [Compound 410]",IC50,"HCV replicon 2B; read-out: 2B IC50, replicon 2B",1.5 nM
"COC(=O)N[C@H](C(=O)N1CCC[C@H]1c1ncc(-c2cc(F)c3c(c2)OC(c2cnc(-c4ccc(C)o4)s2)n2c-3cc3cc(-c4cnc([C@@H]5CCCN5C(=O)[C@@H](NC(=O)OC)C(C)C)[nH]4)ccc32)[nH]1)C(C)C (single isomer, unassigned) [Compound 412]",IC50,HCV replicon 2B; [1],0.12 nM
"COC(=O)N[C@H](C(=O)N1CCC[C@H]1c1ncc(-c2cc(F)c3c(c2)OC(c2sc(C)nc2C(F)(F)F)n2c-3cc3cc(-c4cnc([C@@H]5CCCN5C(=O)[C@@H](NC(=O)OC)C(C)C)[nH]4)ccc32)[nH]1)C(C)C (single isomer, unassigned) [Compound 427]",IC50,HCV replicon 1A; Hepatitis C virus,0.0024 nM
"CCC(CC)c1ncc(C2Oc3cc(-c4cnc([C@@H]5CCCN5C(=O)[C@@H](NC(=O)OC)C(C)C)[nH]4)cc(F)c3-c3cc4cc(-c5cnc([C@@H]6CCCN6C(=O)[C@@H](NC(=O)OC)C(C)C)[nH]5)ccc4n32)s1 (single isomer, unassigned) [Compound 429]",IC50,HCV replicon 1A,0.0012 nM
"COC(=O)N[C@H](C(=O)N1CCC[C@H]1c1ncc(-c2cc(F)c3c(c2)OC(c2cnc(CC(C)C)s2)n2c-3cc3cc(-c4cnc([C@@H]5CCCN5C(=O)[C@@H](NC(=O)OC)C(C)C)[nH]4)ccc32)[nH]1)C(C)C (single isomer, unassigned) [Compound 513]",IC50,"HCV replicon 2B; replicon 2B, read-out: 2B IC50",1.21 nM
